Reference: ChEMBL document CHEMBL3046407, “Toxicity of monoterpenes against larvae and adults of Colorado potato beetle, Leptinotarsa decemlineata Say (Coleoptera: Chrysomelidae)” (2007)

How the values were obtained:
Type in all cases: functional
[1] = system: Leptinotarsa decemlineata; assay: Insecticidal activity against second-instar larval stage of Leptinotarsa decemlineata infested potato leaves assessed as mortality at 20 ul after 96 hr (reference value: 3.3 +/- 3.3%)
[2] = system: Leptinotarsa decemlineata; assay: Insecticidal activity against adult Leptinotarsa decemlineata infested potato leaves assessed as mortality at 10 ul after 24 hr relative to control
[3] = system: Leptinotarsa decemlineata; assay: Insecticidal activity against third-instar larval stage of Leptinotarsa decemlineata infested potato leaves assessed as mortality at 10 ul after 48 hr (reference value: 3.3 +/- 3.3%)
[4] = system: Leptinotarsa decemlineata; assay: Insecticidal activity against second-instar larval stage of Leptinotarsa decemlineata infested potato leaves assessed as mortality at 10 ul after 12 hr relative to control
[5] = system: Leptinotarsa decemlineata; assay: Insecticidal activity against adult Leptinotarsa decemlineata infested potato leaves assessed as mortality at 10 ul after 96 hr relative to control
[6] = system: Leptinotarsa decemlineata; assay: Insecticidal activity against first-instar larval stage of Leptinotarsa decemlineata infested potato leaves assessed as mortality at 10 ul after 96 hr relative to control
[7] = system: Leptinotarsa decemlineata; assay: Insecticidal activity against second-instar larval stage of Leptinotarsa decemlineata infested potato leaves assessed as mortality at 10 ul after 96 hr (reference value: 3.3 +/- 3.3%)
[8] = system: Leptinotarsa decemlineata; assay: Insecticidal activity against adult Leptinotarsa decemlineata infested potato leaves assessed as mortality at 20 ul after 24 hr relative to control
[9] = system: Leptinotarsa decemlineata; assay: Insecticidal activity against third-instar larval stage of Leptinotarsa decemlineata infested potato leaves assessed as mortality at 20 ul after 12 hr relative to control
[10] = system: Leptinotarsa decemlineata; assay: Insecticidal activity against first-instar larval stage of Leptinotarsa decemlineata infested potato leaves assessed as mortality at 20 ul after 24 hr relative to control
[11] = system: Leptinotarsa decemlineata; assay: Insecticidal activity against third-instar larval stage of Leptinotarsa decemlineata infested potato leaves assessed as mortality at 10 ul after 96 hr (reference value: 3.3 +/- 3.3%)
[12] = system: Leptinotarsa decemlineata; assay: Insecticidal activity against third-instar larval stage of Leptinotarsa decemlineata infested potato leaves assessed as mortality at 20 ul after 24 hr relative to control
[13] = system: Leptinotarsa decemlineata; assay: Insecticidal activity against adult Leptinotarsa decemlineata infested potato leaves assessed as mortality at 20 ul after 48 hr relative to control
[14] = system: Leptinotarsa decemlineata; assay: Insecticidal activity against third-instar larval stage of Leptinotarsa decemlineata infested potato leaves assessed as mortality at 10 ul after 12 hr relative to control
[15] = system: Leptinotarsa decemlineata; assay: Insecticidal activity against third-instar larval stage of Leptinotarsa decemlineata infested potato leaves assessed as mortality at 20 ul after 48 hr (reference value: 3.3 +/- 3.3%)
[16] = system: Leptinotarsa decemlineata; assay: Insecticidal activity against third-instar larval stage of Leptinotarsa decemlineata infested potato leaves assessed as mortality at 20 ul after 96 hr (reference value: 3.3 +/- 3.3%)
[17] = system: Leptinotarsa decemlineata; assay: Insecticidal activity against first-instar larval stage of Leptinotarsa decemlineata infested potato leaves assessed as mortality at 20 ul after 48 hr relative to control
[18] = system: Leptinotarsa decemlineata; assay: Insecticidal activity against first-instar larval stage of Leptinotarsa decemlineata infested potato leaves assessed as mortality at 20 ul after 96 hr relative to control
[19] = system: Leptinotarsa decemlineata; assay: Insecticidal activity against second-instar larval stage of Leptinotarsa decemlineata infested potato leaves assessed as mortality at 20 ul after 12 hr relative to control
[20] = system: Leptinotarsa decemlineata; assay: Insecticidal activity against adult Leptinotarsa decemlineata infested potato leaves assessed as mortality at 20 ul after 96 hr relative to control
[21] = system: Leptinotarsa decemlineata; assay: Insecticidal activity against third-instar larval stage of Leptinotarsa decemlineata infested potato leaves assessed as mortality at 10 ul after 24 hr relative to control
[22] = system: Leptinotarsa decemlineata; assay: Insecticidal activity against first-instar larval stage of Leptinotarsa decemlineata infested potato leaves assessed as mortality at 10 ul after 48 hr relative to control
[23] = system: Leptinotarsa decemlineata; assay: Insecticidal activity against adult Leptinotarsa decemlineata infested potato leaves assessed as mortality at 20 ul after 12 hr relative to control
[24] = system: Leptinotarsa decemlineata; assay: Insecticidal activity against second-instar larval stage of Leptinotarsa decemlineata infested potato leaves assessed as mortality at 10 ul after 24 hr (reference value: 3.3 +/- 3.3%)
[25] = system: Leptinotarsa decemlineata; assay: Insecticidal activity against second-instar larval stage of Leptinotarsa decemlineata infested potato leaves assessed as mortality at 20 ul after 24 hr (reference value: 3.3 +/- 3.3%)
[26] = system: Leptinotarsa decemlineata; assay: Insecticidal activity against adult Leptinotarsa decemlineata infested potato leaves assessed as mortality at 10 ul after 12 hr relative to control
[27] = system: Leptinotarsa decemlineata; assay: Insecticidal activity against first-instar larval stage of Leptinotarsa decemlineata infested potato leaves assessed as mortality at 20 ul after 12 hr relative to control
[28] = system: Leptinotarsa decemlineata; assay: Insecticidal activity against adult Leptinotarsa decemlineata infested potato leaves assessed as mortality at 10 ul after 48 hr relative to control
[29] = system: Leptinotarsa decemlineata; assay: Insecticidal activity against first-instar larval stage of Leptinotarsa decemlineata infested potato leaves assessed as mortality at 10 ul after 24 hr relative to control
[30] = system: Leptinotarsa decemlineata; assay: Insecticidal activity against second-instar larval stage of Leptinotarsa decemlineata infested potato leaves assessed as mortality at 10 ul after 48 hr (reference value: 3.3 +/- 3.3%)
[31] = system: Leptinotarsa decemlineata; assay: Insecticidal activity against second-instar larval stage of Leptinotarsa decemlineata infested potato leaves assessed as mortality at 20 ul after 48 hr (reference value: 3.3 +/- 3.3%)
[32] = system: Leptinotarsa decemlineata; assay: Insecticidal activity against first-instar larval stage of Leptinotarsa decemlineata infested potato leaves assessed as mortality at 10 ul after 12 hr relative to control

Compound	mortality [1] [%]	mortality [2] [%]	mortality [3] [%]	mortality [4] [%]	mortality [5] [%]	mortality [6] [%]	mortality [7] [%]	mortality [8] [%]	mortality [9] [%]	mortality [10] [%]	mortality [11] [%]	mortality [12] [%]	mortality [13] [%]	mortality [14] [%]	mortality [15] [%]	mortality [16] [%]	mortality [17] [%]	mortality [18] [%]	mortality [19] [%]	mortality [20] [%]	also measured
CC1=CCC(O)(C(C)C)CC1 (centres undefined) [TERPINEOL]	100	76.7	23.3	33.3	100	100	100	43.3	3.3	86.7	23.3	23.3	80	6.7	26.7	40	100	100	60	100	mortality [21]: 16.7%; mortality [22]: 73.3%; mortality [23]: 16.7%; mortality [24]: 83.3%; mortality [25]: 100%; mortality [26]: 3.3%; mortality [27]: 40%; mortality [28]: 93.3%; mortality [29]: 40%; mortality [30]: 100%; mortality [31]: 100%; mortality [32]: 0%
CC1=CCC2C(C1)C2(C)C (centres undefined) [CARENE]	93.3	73.3	100	46.7	80	100	100	80	100	70	100	100	86.7	100	100	100	86.7	86.7	76.7	86.7	mortality [21]: 100%; mortality [22]: 86.7%; mortality [23]: 50%; mortality [24]: 73.3%; mortality [25]: 86.7%; mortality [26]: 36.7%; mortality [27]: 56.7%; mortality [28]: 80%; mortality [29]: 63.3%; mortality [30]: 100%; mortality [31]: 93.3%; mortality [32]: 36.7%
C=CC(C)CCC=C(C)C (stereo not drawn) [BETA-CITRONELLENE]	100	73.3	100	43.3	76.7	100	100	76.7	50	100	100	80	83.3	80	93.3	93.3	100	100	66.7	90	mortality [21]: 93.3%; mortality [22]: 100%; mortality [23]: 53.3%; mortality [24]: 96.7%; mortality [25]: 100%; mortality [26]: 40%; mortality [27]: 76.7%; mortality [28]: 73.3%; mortality [29]: 86.7%; mortality [30]: 100%; mortality [31]: 100%; mortality [32]: 30%
C=C(C)C1CCC2(C)OC2C1 (centres undefined) [LIMONENE OXIDE]	96.7	16.7	43.3	30	30	93.3	90	20	13.3	93.3	46.7	33.3	40	13.3	46.7	56.7	100	100	60	56.7	mortality [21]: 23.3%; mortality [22]: 80%; mortality [23]: 16.7%; mortality [24]: 73.3%; mortality [25]: 93.3%; mortality [26]: 10%; mortality [27]: 70%; mortality [28]: 20%; mortality [29]: 53.3%; mortality [30]: 83.3%; mortality [31]: 93.3%; mortality [32]: 26.7%
C=C(C)C1CC=C(C)C(=O)C1 (centres undefined) [CARVONE]	90	26.7	13.3	33.3	93.3	63.3	63.3	36.7	23.3	30	16.7	86.7	100	6.7	90	90	43.3	56.7	53.3	100	mortality [21]: 13.3%; mortality [22]: 43.3%; mortality [23]: 3.3%; mortality [24]: 53.3%; mortality [25]: 83.3%; mortality [26]: 0%; mortality [27]: 10%; mortality [28]: 66.7%; mortality [29]: 43.3%; mortality [30]: 63.3%; mortality [31]: 86.7%; mortality [32]: 16.7%
C/C=C(C)/C=C/C=C(C)C [ALLO-OCIMENE]	60	3.3	0	23.3	3.3	56.7	66.7	20	23.3	33.3	0	23.3	20	0	23.3	26.7	46.7	56.7	30	23.3	mortality [21]: 0%; mortality [22]: 46.7%; mortality [23]: 3.3%; mortality [24]: 40%; mortality [25]: 43.3%; mortality [26]: 3.3%; mortality [27]: 16.7%; mortality [28]: 3.3%; mortality [29]: 33.3%; mortality [30]: 50%; mortality [31]: 53.3%; mortality [32]: 13.3%
C=CC(=C)CCC=C(C)C [MYRCENE]	100	93.3	56.7	56.7	100	93.3	93.3	90	36.7	90	60	70	96.7	26.7	73.3	76.7	100	100	73.3	100	mortality [21]: 53.3%; mortality [22]: 93.3%; mortality [23]: 73.3%; mortality [24]: 93.3%; mortality [25]: 90%; mortality [26]: 46.7%; mortality [27]: 36.7%; mortality [28]: 100%; mortality [29]: 80%; mortality [30]: 93.3%; mortality [31]: 100%; mortality [32]: 20%
